Data from patent US11001590B2, “Pyrazolopyrimidine derivatives” (BAYER ANIMAL HEALTH GMBH, priority 2016, dated 2021).

What was measured:
[1] = system: Dirofilaria immitis microfilariae; test: In vitro assay 3: Dirofilaria immitis microfilariae (DIROIM L1), motility; conditions: 72 h, reduction of motility vs negative control, 72 h incubation
[2] = log P by HPLC on reversed phase columns (Method L0; [a] acidic, [b] neutral range)
Procedure: Calibration was done with straight-chain alkan-2-ones (with 3 to 16 carbon atoms) with known log P values (measurement of log P values using retention times with linear interpolation between successive alkanones). Lambda-max-values were determined using UV-spectra from 200 nm to 400 nm and the peak values of the chromatographic signals.

[3] = molecular target: C. elegans Slo-1a (Caenorhabditis elegans, UniProt Q95V25); test: In vitro assay 1: C. elegans Slo-1a, action at a recombinant C. elegans CHO cell line (membrane potential measurement)
C. elegans Slo-1a, sequence (Q95V25 whole entry): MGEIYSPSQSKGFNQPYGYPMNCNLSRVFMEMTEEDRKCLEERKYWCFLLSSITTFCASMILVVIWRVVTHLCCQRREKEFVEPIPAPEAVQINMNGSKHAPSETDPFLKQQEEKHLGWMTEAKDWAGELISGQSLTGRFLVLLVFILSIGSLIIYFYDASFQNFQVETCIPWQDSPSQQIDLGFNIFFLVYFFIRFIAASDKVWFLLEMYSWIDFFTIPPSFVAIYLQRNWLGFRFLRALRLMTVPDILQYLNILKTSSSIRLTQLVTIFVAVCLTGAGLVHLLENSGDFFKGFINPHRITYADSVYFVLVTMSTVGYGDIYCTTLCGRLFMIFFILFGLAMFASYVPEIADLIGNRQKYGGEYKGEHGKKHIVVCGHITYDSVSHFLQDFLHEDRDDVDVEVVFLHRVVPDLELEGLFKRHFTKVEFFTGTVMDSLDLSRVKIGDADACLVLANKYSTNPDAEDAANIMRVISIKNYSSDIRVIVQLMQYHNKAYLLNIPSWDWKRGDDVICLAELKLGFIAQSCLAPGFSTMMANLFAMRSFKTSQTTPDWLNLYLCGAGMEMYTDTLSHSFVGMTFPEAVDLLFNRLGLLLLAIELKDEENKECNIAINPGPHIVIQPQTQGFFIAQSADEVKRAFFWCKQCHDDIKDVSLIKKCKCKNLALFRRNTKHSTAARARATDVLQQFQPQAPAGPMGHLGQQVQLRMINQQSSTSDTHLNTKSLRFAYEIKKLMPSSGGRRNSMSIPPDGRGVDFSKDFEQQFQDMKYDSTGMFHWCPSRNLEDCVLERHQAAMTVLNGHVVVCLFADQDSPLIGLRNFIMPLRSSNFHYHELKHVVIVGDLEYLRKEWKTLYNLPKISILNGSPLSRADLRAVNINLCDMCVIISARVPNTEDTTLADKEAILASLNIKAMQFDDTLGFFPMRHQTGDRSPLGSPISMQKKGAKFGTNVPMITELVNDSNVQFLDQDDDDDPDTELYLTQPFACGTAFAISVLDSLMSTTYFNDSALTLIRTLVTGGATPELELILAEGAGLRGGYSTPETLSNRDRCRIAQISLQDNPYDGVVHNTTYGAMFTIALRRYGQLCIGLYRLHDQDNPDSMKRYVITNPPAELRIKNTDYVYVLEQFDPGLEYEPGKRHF
Procedure: In Vitro Assay 1: C. Eleqans Slo-La—Action at a Recombinant C. elegans Cell Line
Cells were cultured at 37° C. and 5% CO2 in MEMalpha with Gutamax I (Invitrogen, Nr.: 32571), supplemented with 10% (v/v) heat inactivated fetal bovine serum (Invitrogen, Nr.: 10500), G418 (1 mg/ml, Invitrogen, Nr.: 10131). Cells were detached using Accutase (Sigma, Nr.: A6964).
Membrane Potential Measurements
Laboratory compound testing was performed on 384-well microtiter plates (MTPs, Greiner, Nr.: 781092). 8000 cells/well were plated onto 384-well MTPs and cultured for 20 to 24 hours at 37° C. and 5% CO2. After removal of the cell culture medium, the cells were washed once with tyrode (150 mM NaCl, 0.3 mM KCl, 2 mM CaCl2, 1 mM MgCl2, 0.8 mM NaH2PO4, 5 mM Glucose, 28 mM Hepes, pH 7.4) and then loaded with the voltage sensitive dye of the Membrane Potential Assay Kit diluted in tyrode for 1 h at room temperature.
After starting the measurement of fluorescence using a FLIPR Tetra (Molecular Devices, Exc. 510-545 nm, Emm. 565-625 nm), test compounds were added followed by the addition of KCl tyrode (final assay concentration: 70 mM KCl, 2 mM CaCl2, 1 mM MgCl2, 0.8 mM NaH2PO4, 5 mM Glucose, 28 mM Hepes, pH 7.4, including the voltage sensitive dye). The measurement was completed after 7 minutes.

SMILES | EC50 [1] | chromatographic logP [2] | EC50 [3]
Cc1nn2c(C(C)C)c(C(=O)N[C@H]3CCc4ccccc43)cnc2c1-c1cccc(OCC2CC2)c1 [Example 319] | < 1 µg/mL | 5.28 | 25.1 nM
Cc1nn2c(C(C)C)c(C(=O)N[C@H]3CCc4ccccc43)cnc2c1-c1cccc(OCC#N)c1 [Example 320] | < 10 µg/mL | 4.09 | 50.1 nM
Cc1nn2c(C(C)C)c(C(=O)N[C@H]3CCc4ccccc43)cnc2c1-c1cccc(OC(C)C)c1 [Example 321] | < 1 µg/mL | 5.28 | 10 nM
Cc1nn2c(C(C)C)c(C(=O)N[C@H]3CCc4ccccc43)cnc2c1-c1cccc(N2CCCC2)c1 [Example 329] | < 10 µg/mL | 5.44 | 25.1 nM
Cc1nn2c(C(C)C)c(C(=O)N[C@H]3CCc4ccccc43)cnc2c1-c1ccc(OC(F)(F)F)cc1 [Example 331] | < 10 µg/mL | 5.41 | 251 nM
Cc1nn2c(C(C)C)c(C(=O)N[C@H]3CCc4ccccc43)cnc2c1-c1ccc(C(F)(F)F)cc1 [Example 332] | < 1 µg/mL | 5.32 | 15.8 nM
Cc1nn2c(C(C)C)c(C(=O)N[C@H]3CCc4ccccc43)cnc2c1-c1ccc(C(F)F)cc1 [Example 334] | < 10 µg/mL | 4.63 | 25.1 nM
COCc1ccc(-c2c(C)nn3c(C(C)C)c(C(=O)N[C@H]4CCc5ccccc54)cnc23)cc1 [Example 340] | < 1 µg/mL | 4.41 | 39.8 nM
CNc1ccc(-c2c(C)nn3c(C(C)C)c(C(=O)N[C@H]4CCc5ccccc54)cnc23)cc1 [Example 341] | < 10 µg/mL | 3.32 | 200 nM
Cc1nn2c(C(C)C)c(C(=O)N[C@H]3CCc4ccccc43)cnc2c1-c1ccc(N(C)C)cc1 [Example 342] | < 10 µg/mL | 3.91 | 200 nM
Cc1nn2c(C(C)C)c(C(=O)N[C@H]3CCCc4ccccc43)cnc2c1-c1ccc(F)cc1 [Example 343] | < 10 µg/mL | 4.95 | 20 nM
Cc1nn2c(C(C)C)c(C(=O)N[C@H]3CCCc4ccccc43)cnc2c1-c1cccc(OC(F)(F)F)c1 [Example 345] | < 1 µg/mL | 5.82 | 12.6 nM
COc1cccc(-c2c(C)nn3c(C(C)C)c(C(=O)N[C@H]4CCCc5ccccc54)cnc23)c1 [Example 346] | < 0.1 µg/mL | 4.82 | 12.6 nM
Cc1nn2c(C(C)C)c(C(=O)N[C@H]3CCCc4ccccc43)cnc2c1-c1cccc(F)c1 [Example 347] | < 1 µg/mL | 5.04 | 39.8 nM
Cc1nn2c(C(C)C)c(C(=O)N[C@H]3CCc4ccccc43)cnc2c1-c1cccc(CN2CCOCC2)c1 [Example 354] | < 10 µg/mL | 2.01 | 398 nM
CCN(CC)Cc1cccc(-c2c(C)nn3c(C(C)C)c(C(=O)N[C@H]4CCc5ccccc54)cnc23)c1 [Example 355] | < 10 µg/mL | 2.12 | 2510 nM
Cc1nn2c(C(C)C)c(C(=O)N[C@H]3CCc4ccccc43)cnc2c1-c1cccc(N2CCCCC2)c1 [Example 356] | < 10 µg/mL | 3.25 | 158 nM
Cc1nn2c(C3CC3)c(C(=O)N[C@H]3CCc4ccccc43)cnc2c1-c1cccc(OC(F)(F)F)c1 [Example 360] | < 1 µg/mL | 4.72 | 12.6 nM
Cc1nn2c(C(C)C)c(C(=O)N[C@H]3CCCc4ccccc43)cnc2c1-c1cccc(N(C)C)c1 [Example 361] | < 1 µg/mL | 4.32 | 15.8 nM
Cc1nn2c(C(C)C)c(C(=O)N[C@H]3CCCc4ccccc43)cnc2c1-c1cncc(Cl)c1 [Example 362] | < 10 µg/mL | 4.52 | 100 nM
COc1cc(-c2c(C)nn3c(C(C)C)c(C(=O)N[C@H]4CCCc5ccccc54)cnc23)cc(C(F)(F)F)c1 [Example 363] | < 10 µg/mL | 5.7 | 63.1 nM
Cc1nn2c(C(C)C)c(C(=O)N[C@H]3CCc4ccccc43)cnc2c1-c1cccc(CN2CCCC2)c1 [Example 365] | < 10 µg/mL | 2.08 | 3160 nM
Cc1nn2c(C(C)C)c(C(=O)N[C@H]3CCc4ccccc43)cnc2c1-c1cccc(CN(C)C)c1 [Example 366] | < 10 µg/mL | 1.95 | 1580 nM
Cc1nn2c(C(C)C)c(C(=O)N[C@H]3CCc4ccccc43)cnc2c1-c1cccc(COCC(F)(F)F)c1 [Example 367] | < 10 µg/mL | 4.99 | 158 nM
Cc1nn2c(C(C)C)c(C(=O)N[C@H]3CCc4ccccc43)cnc2c1-c1cccc(COC(C)C)c1 [Example 369] | < 10 µg/mL | 5.25 | 20 nM

SMILES | EC50 [1] | chromatographic logP [2] | EC50 [3]
CCOCc1cccc(-c2c(C)nn3c(C(C)C)c(C(=O)N[C@H]4CCc5ccccc54)cnc23)c1 [Example 370] | < 1 µg/mL | 4.86 | 15.8 nM
Cc1nn2c(C(C)C)c(C(=O)N[C@H]3CCc4ccccc43)cnc2c1-c1cccc(N2CCC2)c1 [Example 372] | < 1 µg/mL | 4.67 | 15.8 nM
CCN(C)c1cccc(-c2c(C)nn3c(C(C)C)c(C(=O)N[C@H]4CCc5ccccc54)cnc23)c1 [Example 373] | < 1 µg/mL | 3.48 | 39.8 nM
COCCn1cc(-c2c(C)nn3c(C(C)C)c(C(=O)N[C@H]4CCc5ccccc54)cnc23)cn1 [Example 375] | < 10 µg/mL | 3.26 | 200 nM
COc1cc(Cl)cc(-c2c(C)nn3c(C(C)C)c(C(=O)N[C@H]4CCCc5ccccc54)cnc23)c1 [Example 378] | < 1 µg/mL | 5.55 | 50.1 nM
CCN(CC)c1cccc(-c2c(C)nn3c(C(C)C)c(C(=O)N[C@H]4CCc5ccccc54)cnc23)c1 [Example 379] | < 1 µg/mL | 2.81 | 100 nM
CSCc1cccc(-c2c(C)nn3c(C(C)C)c(C(=O)N[C@H]4CCc5ccccc54)cnc23)c1 [Example 388] | < 1 µg/mL | 5 | 7.94 nM
Cc1nn2c(C(C)C)c(C(=O)N[C@H]3CCc4ccccc43)cnc2c1-c1cccc(COCC2CC2)c1 [Example 389] | < 10 µg/mL | 5.24 | 251 nM
CCCOCc1cccc(-c2c(C)nn3c(C(C)C)c(C(=O)N[C@H]4CCc5ccccc54)cnc23)c1 [Example 390] | < 10 µg/mL | 5.4 | 39.8 nM
COc1cc(-c2c(C)nn3c(C(C)C)c(C(=O)N[C@H]4CCOc5ccccc54)cnc23)cc(C(F)(F)F)c1 [Example 391] | < 1 µg/mL | 5.13 | 25.1 nM
Cc1nn2c(C(C)C)c(C(=O)N[C@H]3CCOc4ccccc43)cnc2c1-c1cccc(OC(F)(F)F)c1 [Example 394] | < 0.1 µg/mL | 5.19 | 15.8 nM
Cc1nn2c(C(C)C)c(C(=O)N[C@H]3CCc4ccccc43)cnc2c1-c1cnn(C(C)C)c1 [Example 398] | < 1 µg/mL | 3.77 | 20 nM
Cc1nn2c(C(C)C)c(C(=O)N[C@H]3CCc4ccccc43)cnc2c1-c1cccc(CN2CCN(C)CC2)c1 [Example 399] | < 10 µg/mL | 1.98 | 7940 nM
Cc1nn2c(C(C)C)c(C(=O)N[C@H]3CCc4ccccc43)cnc2c1-c1cccc(CS(C)(=O)=O)c1 [Example 400] | < 10 µg/mL | 3.39 | 126 nM
CC(C)c1c(C(=O)N[C@H]2CCc3ccccc32)cnc2c(-c3cccc(N(C)C)c3)c(C3CC3)nn12 [Example 407] | < 10 µg/mL | 4.81 | 126 nM
COc1cccc(-c2c(C3CC3)nn3c(C(C)C)c(C(=O)N[C@H]4CCc5ccccc54)cnc23)c1 [Example 408] | < 10 µg/mL | 5.19 | 316 nM
CC(C)c1c(C(=O)N[C@H]2CCc3ccccc32)cnc2c(-c3c(F)cccc3F)c(C3CC3)nn12 [Example 413] | < 1 µg/mL | 4.96 | 251 nM
Cc1nn2c(C3CC3)c(C(=O)N[C@H]3CCc4ccccc43)cnc2c1-c1cccc(OC(F)F)c1 [Example 417] | < 0.1 µg/mL | 4.01 | 7.94 nM
Cc1nn2c(C3CC3)c(C(=O)N[C@H]3CCc4ccccc43)cnc2c1-c1cccc(OC2CC2)c1 [Example 418] | < 0.1 µg/mL | 4.29 | 3.16 nM
Cc1nn2c(C(C)C)c(C(=O)N[C@H]3CCCc4ccccc43)cnc2c1-c1cnn(CC2CC2)c1 [Example 420] | < 10 µg/mL | 4.13 | 7.94 nM
COc1cc(-c2c(C)nn3c(C4CC4)c(C(=O)N[C@H]4CCc5ccccc54)cnc23)cc(C(F)(F)F)c1 [Example 423] | < 10 µg/mL | 4.7 | 63.1 nM
Cc1nn2c(C3CC3)c(C(=O)N[C@H]3CCc4ccccc43)cnc2c1-c1cc(Cl)cc(C(F)(F)F)c1 [Example 425] | < 10 µg/mL | 5.34 | 79.4 nM
CC(C)c1c(C(=O)N[C@H]2CCc3ccccc32)cnc2c(-c3cccc(N(C)C)c3)c(C(F)F)nn12 [Example 427] | < 10 µg/mL | 4.3 | 20 nM
COc1cccc(-c2c(C(F)F)nn3c(C(C)C)c(C(=O)N[C@H]4CCc5ccccc54)cnc23)c1 [Example 428] | < 0.1 µg/mL | 4.42 | 25.1 nM
CC(C)c1c(C(=O)N[C@H]2CCc3ccccc32)cnc2c(-c3cccc(F)c3)c(C(F)F)nn12 [Example 429] | < 10 µg/mL | 4.57 | 39.8 nM
